The values below come from patent publication US20230035479A1, “METHODS AND COMPOSITIONS FOR REDUCING HAIR GREYING” (President and Fellows of Harvard College, priority 2019, published 2023).

Read-outs that look alike come from different tables or passages of the source.

One assay has as its system C57BL/6J mice. In kind it is in vivo, mouse.
In assay [1] the test system is melanocyte stem cells (MeSCs). Put plainly: Apoptosis (active caspase-3, TUNEL) and DNA damage (gamma-H2AX) in MeSCs. The assay is classed as in vivo, mouse. Here is the method: Radiation causes DNA damage in MeSCs, leading to their differentiation within the niche.
(§1) Mouse skin samples were fixed using 4% paraformaldehyde (PFA) for 15 minutes at room temperature, washed 6 times with PBS, and immersed in 30% sucrose overnight at 4° C. Samples were then embedded in OCT (Sakura Finetek). 35˜50 μm sections were fixed in 4% paraformaldehyde (PFA) for 2 minutes and washed with PBS and PBST. Slides were then blocked using blocking buffer (5% donkey serum; 1% BSA, 2% cold water fish gelatin in 0.3% Triton in PBS) for 1 hour at room temperature, followed by staining with primary antibodies overnight at 4° C. and secondary antibody for 4 hours at room temperature. For sympathetic nerve density quantification, 90 μm sections were used. EdU was developed for 1 hour using the Click-It reaction according to manufacturer instructions (Thermo Fisher Scientific). TUNEL assay was performed according to manufacturer instructions (Roche). Fontana—Masson staining was performed according to manufacturer instructions (Market Lab ML7255). Antibodies used: TRP2 (Santa Cruz 10451, 1:800), tyrosine hydroxylase (rabbit, Millipore AB152, 1:1000 or sheep, Millipore AB1542, 1:150-1:300), c-Fos (Abcam, 190289, 1:1000), γ-H2AX (Cell Signaling, 9718, 1:400), phospho-histone H3 (rabbit, Cell Signaling Technology 3377S, 1:500), cleaved caspase 3 (rabbit, Cell Signaling Technology 9664S, 1:400), GFP (rabbit, Abcam ab290, 1:1000 or chicken, Ayes labs GFP-1010, 1:200), CD3 (eBioscience 14-0032-81, 1:800), CD11b (eBioscience 14-0112-81, 1:800), Phospho-CREB (Cell Signaling 9198, 1:800), MITF (Abcam ab12039, 1:400).

The test system of assay [2] is Phospho-CREB (a downstream effector of ADRB2). Briefly: Phospho-CREB immunofluorescence in hair follicles. In kind it is in vivo, mouse. The settings on record: 12 hours after RTX injection; not in mature melanocytes. The method, then:
It was then considered whether ADRB2 might mediate the impact of stress on MeSCs.
(§2) Mouse skin samples were fixed using 4% paraformaldehyde (PFA) for 15 minutes at room temperature, washed 6 times with PBS, and immersed in 30% sucrose overnight at 4° C. Samples were then embedded in OCT (Sakura Finetek). 35˜50 μm sections were fixed in 4% paraformaldehyde (PFA) for 2 minutes and washed with PBS and PBST. Slides were then blocked using blocking buffer (5% donkey serum; 1% BSA, 2% cold water fish gelatin in 0.3% Triton in PBS) for 1 hour at room temperature, followed by staining with primary antibodies overnight at 4° C. and secondary antibody for 4 hours at room temperature. For sympathetic nerve density quantification, 90 μm sections were used. EdU was developed for 1 hour using the Click-It reaction according to manufacturer instructions (Thermo Fisher Scientific). TUNEL assay was performed according to manufacturer instructions (Roche). Fontana—Masson staining was performed according to manufacturer instructions (Market Lab ML7255). […]

The test system of the next assay is mature melanocytes. Put plainly: Differentiated/mature melanocytes and hair bulb cells, immunofluorescence. The assay is classed as in vivo, mouse. The method, then: Loss of hair pigmentation can be due to defects in melanin synthesis, loss of differentiated melanocytes, or problems in MeSC maintenance. To understand how stress impacts the melanocyte lineage, RTX was injected into mice in anagen, when both MeSCs and differentiated melanocytes were present but located within distinct compartments—MeSCs were near to the bulge while differentiated melanocytes were at the hair bulb (FIG. 1E). […] These differentiated melanocytes continued to generate pigments, and the hair coat remained black (FIGS. 6F-6G). When hair follicles in the RTX-injected animals entered catagen and telogen, many have lost all MeSCs (FIG. 1E, Telo). Subsequently, when the next round of anagen initiated, differentiated melanocytes were not produced to color new hair shafts, and unpigmented hairs emerged (FIG. 1E, 2nd Ana, FIG. 6H). […] In this case, unpigmented hairs appeared as soon as new hairs emerged in the following anagen (FIGS. 7A-7B). […] MeSCs were also lost or reduced in mice subjected to restraint stress or chronic unpredictable stress (FIG. 7C). Since stress depleted MeSCs, the loss of hair pigmentation in all three conditions was permanent (FIG. 7D).
Quiescence is a key feature of many somatic stem cells. Loss of quiescence has been postulated to cause MeSC loss in Bcl2 mutants. To examine if stress alters MeSCs quiescence, RTX or norepinephrine was injected into mice that had entered full anagen, when MeSCs are normally quiescent. A dramatic increase in the number of proliferating MeSCs was seen within 24 hours after RTX or norepinephrine injection—about 50% of MeSCs became positive for Phospho-Histone H3, an M phase marker (FIG. 4B). This number is in sharp contrast to the MeSC proliferation seen in early anagen (˜6%), the only stage when MeSCs proliferate to self-renew (FIG. 11E).
as §1

Assay [3] can be described thus: Fontana-Masson melanin staining. As to conditions: 5 days after RTX injection. The assay is classed as in vivo, mouse. Here is the method: They also began to depart from the bulge—some migrated downwards along the hair follicle, and some migrated out into dermis or epidermis (FIG. 4C, D2 and D3). By Day 3, many GFP positive cells had migrated out of the bulge, and by Day 4, many hair follicles had lost all GFP positive cells in the bulge.
as §2

Assay [4] concerns melanocyte stem cells (MeSCs). Briefly: MeSC proliferation, Phospho-Histone H3 immunofluorescence. As to conditions: within 24 hours after injection, full anagen.
Description: For RTX injection, mice received injections of RTX (30-100 μg/kg) in the flank for 1-3 days as described previously [15, 16, 51-56]. […] Control mice were treated with the vehicle only. RTX injection was done either in full anagen (P31-P36) or in 1st telogen (P21). […] RTX was given at Anagen VI (P31˜P36).
All images were acquired using a Zeiss LSM 880 confocal microscope or Keyence microscope using ×20 or ×40 magnification lenses. Images are presented as Maximum Intensity Projection images. For colocalization analysis, images are presented as a single Z stack.
Assay [5] concerns melanocyte stem cells (MeSCs). Briefly: MeSC numbers in hair follicles, TRP2 immunofluorescence or membrane GFP tracing.
Description: For RTX injection, mice received injections of RTX (30-100 μg/kg) in the flank for 1-3 days as described previously [15, 16, 51-56]. […] Control mice were treated with the vehicle only. RTX injection was done either in full anagen (P31-P36) or in 1st telogen (P21). […] Mice were treated for three days (P28-P30). […] RTX was given at Anagen VI (P31˜P36).

For `C=C(C)[C@]12C[C@@H](C)[C@@]34O[C@](Cc5ccccc5)(O[C@@H]1[C@@H]3C=C(COC(=O)Cc1ccc(O)c(OC)c1)C[C@]1(O)C(=O)C(C)=C[C@@H]41)O2` [RTX, resiniferatoxin], the “hair greying (unpigmented hairs)” value in the assay with C57BL/6J mice (C57BL/6J mice, next hair cycle after RTX injection) is “many new hairs formed in the next hair cycle following RTX injection became unpigmented”. Moreover, in the assay on C57BL/6J mice (RTX injection, male and female mice), the “extent of hair greying, male vs female” value is “same extent of hair greying in both male and female mice”. Further, the white hair formation entry with C57BL/6J mice (RTX into CD11b-DTR mice, myeloid lineages ablated by diphtheria toxin) is recorded as “still resulted in white hair formation”; with C57BL/6J mice (RTX into Rag1 mutant mice lacking T and B cells), “still resulted in white hair formation”; with C57BL/6J mice (RTX, ADRB2 depleted from MeSCs using Tyr-CreER), “white hairs failed to form”. Besides, the hair greying result in the assay on C57BL/6J mice (RTX into RIPK3 mutant mice) is given as “still caused hair greying”; in the assay on C57BL/6J mice (RTX into Tyr-CreER, GR fl/fl mice (MeSC-GR cKO)) it was “still resulted in hair greying”; with C57BL/6J mice (RTX into adrenalectomized mice), “still caused hair greying”; with C57BL/6J mice (RTX, ADRB2 depleted from hair follicle stem cells), “still resulted in hair greying”. Also, the “active caspase-3 or TUNEL signals in MeSCs” value in assay [1] (before MeSC depletion from the niche, 1 day after injection) is “failed to detect active caspase-3 or TUNEL signals”. In assay [1] (following injection), the “gamma-H2AX foci (DNA damage) in MeSCs” value is listed as “failure to detect gamma-H2AX foci”. Further, in assay [2], the “Phospho-CREB in MeSCs” value was “marked induction of Phospho-CREB”. The “differentiated melanocytes in the same hair follicle” value in the assay with mature melanocytes (5 days after RTX injection in anagen) is “remained unperturbed”. Further, in the assay on mature melanocytes (after injection, full anagen), the “proliferation or apoptosis in mature melanocytes” value is “no changes in proliferation or apoptosis”. Besides, in assay [3], the ectopic pigmentation entry was “ectopic pigmentation could be detected along the hair follicle, epidermis, and dermis”. In addition, in assay [4], the “MeSCs positive for Phospho-Histone H3” value is given as “about 50%”. Further, the MeSC loss result in assay [5] (RTX injected during telogen) is reported as “caused MeSC loss”. Further, the “time to complete loss of MeSCs from the bulge in many hair follicles” value in assay [5] (RTX injected in anagen) was not above 5 days. Besides, the “TRP2+ MeSC number” value in assay [5] (RTX injected in anagen, entire skin) was “significantly reduced”. Besides, in assay [5] (Tyr-CreER, Rosa-mT/mG mice, shortly after RTX injection (D1)), the “GFP positive cells (traced MeSCs)” value is “transient increase in GFP positive cells”.
